Test results from patent publication US20140076194A1, “ANTIFOULING BY ADHESION SUPPRESSION” (PURDUE RESEARCH FOUNDATION, priority 2011, published 2014).

How the values were obtained:
mussel = test: Mussel plaque adhesion to coated plates (Instron tensile pull of individual plaques); type: in vivo; design: Total Animal Removal Force: unit not given here; conditions: for total animal removal force (in words): Tables 4A and 4B, upon addition of antioxidant, versus DBT control; for mussel adhesion (in words): antioxidant or reducing agent in coating; for force to detach animal: estimated from number of plaques and adhesion per plaque, primer control ~5.6 N; for # of plaques (average): primer control 11.3
From the text: In order to obtain insights on the antifouling potential of a given coating, we would benefit from a rapid laboratory method to quantify adhesion. Coatings that show decreased adhesion in such a laboratory test can then be sent to other investigators for assays with different organisms as well as field testing. We have recently developed a method for determining the adhesion strength of mussels to surfaces. The adhesive system of mussels lends itself well to precise force measurements. Mussels are placed on a candidate coating for adhesive deposition. The area (m^2) of each plaque is determined by digital photography and use of image analysis software. Individual plaques are then pulled from the surface using clamps in an Instron materials testing system (as illustrated in FIG. 3). […] Beyond simply looking for new antifouling coatings to decrease mussel adhesion, we also take note of the adhesive failure modes on new coatings versus controls. […] Thread breakage is also possible but minimized to nearly zero with our adhesion method. When mussels adhere strongly to a given surface, more cohesive failure is often observed or a mix of both cohesive and adhesive failure. If we inhibit curing of the glue with radical inhibitors on the surface, we may find that more adhesive or cohesive failure is observed. Overall, use of this mussel adhesion assay provides quantitative data on the ability of a candidate antifouling coating to inhibit bioadhesion. Here we will use this assay on each coating. Coatings that decrease mussel adhesion substantially will be carried on to further testing. As an operative example, the animal adheres to a given surface (e.g., aluminum plate). […] The animal is removed by cutting the connecting threads at the shell line. At this point, we are left with the surface, an adhesive plaque, and the thread. Adhesion forces must be normalized for surface contact area. Complete adhesion measurement methods includes obtaining data on the plaque-surface contact area. Mussel plaques are typically not perfect circles or ovals. The small size (approximately 2 mm diameter) and irregular shape may complicate obtaining accurate areas. Prior to adhesive testing, a photograph is taken of the plaque. A Nikon (Melville, N.Y., USA) […] digital camera fitted with a Nikon 50 mm f-1.8 lens and a Kenko 12 mm extension tube is held on a small tripod while the lens is oriented directly onto the plate below. The lens is approximately 18 cm above the plates being photographed. Typical exposure settings include f=3.5, 1/15 second shutter speed, and 200 ISO. Ambient light should be sufficient to capture the images. Photographs are taken in JPEG format at maximum resolution ( 3.3 MB per image). Individual plaques are numbered using a marker prior to taking the photograph so that the numbers are included in the image. These labels allow correlation of specific plaques to tensile strength data. At the time of photographing the plaques, area standards are also photographed. The digital images of the plates can be later revisited for calculating surface area. Image analysis software counts pixels within the plaque, relative to a standard, to provide area (m^2). […] Plates bearing plaques and threads are clamped to the base of the Instronl 5544 materials testing system. A custom designed stainless steel base is fabricated for these experiments. The base is a circular platform 15 cm in diameter with a post and pinhole on the bottom, allowing bolting into the bottom mount of the Instron. Test plates with adhesive are fastened to this base with two Quick-Grip Handi Clamps (Wilmington, Ohio, USA) holding down opposite corners. The Instron is fitted with one screw-action grip (part 2710-004) on the top and a 5N load cell. Detachment force measurements begin by lowering the grips directly over an individual plaque. The thread is lifted by hand and is placed in between the grips. The grips are then tightened over the thread. […]

[1] = Water contact angle of coatings; type: physicochemical; conditions: metal primer coating with BHT; metal primer coating alone approximately 106°
Experimental: In some cases added solvent helps the dissolution. We use the same solvent already in the commercial coating (e.g., xylenes or acetone). After curing is complete, the resulting coating is inspected and compared to the control of a similar coating without the adhesion inhibitor. If we observe a lack of curing, crystallization of inhibitors on the surface, lower coating modulus, or color changes the formulation may be discarded from consideration. Water contact angles are then measured for both the coatings and all controls (e.g., coating without inhibitor). Typically the coatings have very similar water contact angles as the controls (e.g., similar to within ˜5°). Large differences in contact angles will also lead to discarding a candidate antifouling formulation. A further narrowing of candidate coatings then takes place. We examine water contact angles (i.e., surface energy) of the evaporative coatings with an antioxidant versus without an added inhibitor. Any coatings with added inhibitor that changes water contact angle by more than 5° may be eliminated from further testing. […] It is envisioned that these modifications are not indicative of whether a particular reductive coating is an effective antifouling coating. […] As part of this selection process, we have approximately twenty (20) coatings to examine, into which we could place approximately eight (8) different antioxidants.

[2] = 2.5% additive in primer, Table 4B
[3] = 25% additive in primer, Table 4A
[4] = 25% additive in primer, Table 4C, recent data with variations versus Table 4A
[5] = Coating: 2.5% (w/w), Table 5B, FIG. 6
[6] = Coating: 25% (w/w), Table 5A, FIG. 5
[7] = primer + 2.5% BHT (w/w) coating, Table 3
[8] = primer + 25% BHT (w/w) coating, Table 3

SMILES	% Adhesive Failure (mussel; [2])	Adhesive Failure (mussel; [2])	Mean Adhesion (mussel; [2])	Plaques/Mussel (mussel; [2])	Total Animal Removal Force (mussel; [2])	% Adhesive Failure (mussel; [3])	Adhesive Failure (mussel; [3])	Mean Adhesion (mussel; [3])	Plaques/Mussel (mussel; [3])	Total Animal Removal Force (mussel; [3])	Adhesion (mussel; [4])	Average Force (mussel; [4])	Average Adhesion (kPa) with 99% CI (mussel; [5])	Average Adhesion (kPa) with 99% CI (mussel; [6])	total animal removal force (in words) (mussel)	mussel adhesion (in words) (mussel)	also measured
CCOc1ccc2c(c1)C(C)=CC(C)(C)N2 [6-ethoxy, 6-ethoxy-1,2-dihydro-2,2,4-trimethylquinoline]	90.9%	33.6 kPa	33.9 kPa	22.3	749	76.4%	33.7 kPa	34.6 kPa	18.4	620	21.23 kPa	0.0948 N	82.60 ± 4.42 kPa	58.22 ± 6.73 kPa	decreases significantly	reduce mussel adhesion	
Cc1cc(C(C)(C)C)c(O)c(C(C)(C)C)c1 [BHT, butylated hydroxytoluene]	66.7%	41.5 kPa	41.5 kPa	17.4	722	44.7%	37.0 kPa	39.5 kPa	11.1	411	37.08 kPa	0.1894 N	87.82 ± 4.98 kPa	90.24 ± 6.84 kPa	decreases significantly		average mussel adhesion (in words) (mussel; 2.5% and 25% BHT-in-primer coatings versus primer-only controls): decreases significantly; total force needed to remove a mussel (in words) (mussel; BHT in the coating, number of plaques combined with adhesion per plaque): drops by up to half; adhesive produced by the animals (in words) (mussel; BHT-containing panels versus primer-only controls): produce less adhesive; force to detach animal (mussel; [7]): ~3.4 N; # of plaques (average) (mussel; [7]): 9.6 plaques; Adhesion (mussel; primer + 2.5% BHT (w/w) coating, Table 3, primer control 184 ± 68 kPa): 135 ± 58 kPa; force to detach animal (mussel; [8]): ~2.2 N; # of plaques (average) (mussel; [8]): 5.2 plaques; Adhesion (mussel; primer + 25% BHT (w/w) coating, Table 3, primer control 184 ± 68 kPa): 110 ± 43 kPa; water contact angle [1]: approximately 108 °
Cc1cc(C(C)(C)C)c(C)c(C(C)(C)C)c1 [DBT, reference compound]	7.0%	49.3 kPa	45.8 kPa	24.1	1430	31.6%	57.3 kPa	53.1 kPa	17.2	986	47.07 kPa	0.2198 N	80.31 ± 5.08 kPa	106.34 ± 6.74 kPa			
CC(C)(C)c1cccc(O)c1C(C)(C)C [DTBP, 2,3-di-tert-butylphenol]	17.6%	56.9 kPa	66.5 kPa	30	1707	70.7%	40.4 kPa	42.0 kPa	16.9	683	34.11 kPa	0.1902 N	89.88 ± 8.45 kPa	82.63 ± 5.24 kPa	decreases significantly	reduce mussel adhesion	
COc1ccccc1 [anisole]	21.1%	42.0 kPa	39.7 kPa	20.1	844	54%	56.8 kPa	59.1 kPa	17.4	988	33.53 kPa	0.1686 N	90.03 ± 8.16 kPa	75.02 ± 5.39 kPa	decreases significantly	reduce mussel adhesion	
CC(=O)C(=O)O [pyruvic acid]																reduce mussel adhesion	
